“Also recorded” adds a separate entry of the source.
What was measured:
mouse skin = experiment: Local BzATP on normal mouse dorsal skin, 4 weeks (tolerability, apoptosis); assay type: in vivo
Experimental: BzATP (100 μM in 200 μl [20 nmol, 14.3 μg, 1.0 μg/cm^2]), was applied twice weekly for 4 weeks on the posterior region of the shaved dorsal skin. The concentration/dose of BzATP and frequency of treatments were chosen based on the above discussed cell culture data. Each animal served as its own control by having vehicle-containing solution applied twice weekly for 4 weeks on the anterior region of the shaved dorsal skin.
TUNEL assays in tissues cross sections were performed using DeadEnd™ Fluorometric TUNEL System (Promega, Madison, Wis.) according to the manufacturer's protocol. For TUNEL-P2X7 co-staining, tissue cross sections were first assayed for TUNEL, followed by P2X7 immunostaining.
Experiments using mice were done according to an approved CWRU IACUC IRB protocol [2006-0141]. Experiments utilized 6-8 weeks old FVB female mice (obtained from Charles River, Wilmington, Mass.). The animal's dorsal skin (about 3×5 cm) was shaved using Oster animal clipper (Mountain Home, Ark.) followed by weekly application of Nair® hair remover lotion. Treatments included the application of one or more of the following drugs, directly onto the shaved dorsal skin: DMBA (50 μg/200 μl acetone [950 μM, 190 nmol, 3.3 μg/cm^2]); TPA (3 μg/200 μl acetone [20 μM, 4 nmol, 0.2 μg/cm^2]); BzATP (14.3 μg/200 μl of 2.3/1 vol/vol solution of propylene-glycol [PG]/ethanol [EtOH][100 μM, 20 nmol, 1.0 μg/cm^2]); or the BzATP vehicle only (200 μl of PG/EtOH). DMBA was applied once, while TPA and BzATP were applied twice a week. Skin neoplasia in the mice were induced by the “Two-Step” method, which involved tumor initiation by local treatment with 7,12-dimethylbenz(a)anthracene (DMBA), followed by tumor promotion with local treatment of 12-O-tetradecanoylphorbol-13-acetate (TPA). Guo et al., “Disruption of EphA2 receptor tyrosine kinase leads to increased susceptibility to carcinogenesis in mouse skin” Cancer Res 2006, 66:7050-7058. The concentration/dose of BzATP and frequency of treatments were chosen based on data in cultured cells (supra).
The shaved dorsal skin was divided into two equal anterior and posterior areas. Each animal was treated with BzATP applied locally twice a week for […] on the anterior skin area; vehicle only was applied in parallel twice a week for 4 weeks on the posterior skin area. At the end of the experiment animals were euthanized by cervical dislocation and dorsal skin strips were obtained from each animal from the anterior and posterior skin areas for microscopic H&E tissue evaluation and P2X7 immunostaining.

hEVEC cells = experiment: Apoptosis in hEVEC cells; assay type: cell-based, human

For `Nc1ncnc2c1ncn2[C@@H]1O[C@H](COP(=O)(O)OP(=O)(O)OP(=O)(O)O)[C@@H](OC(=O)c2ccc(C(=O)c3ccccc3)cc2)[C@H]1O` [BzATP, 3′-O-(4-benzoylbenzoyl)adenosine triphosphate], the “physical characteristics, behavior, feeding habits, weights” value (mouse skin; 1.0 μg/cm^2 twice weekly) was “no noticeable changes”, the “epidermal apoptosis (nuclear morphology, TUNEL)” value (mouse skin; twice weekly) was “augmented apoptosis of epidermal cells; also recorded: numerous epidermal basal/parabasal cells and epidermal hair shaft cells stained TUNEL positive” and the “histological H&E evaluation, treated versus control skin” value (mouse skin; twice weekly) was “no differences”. The “visible effect on the dorsal skin” value (mouse skin; twice weekly) was “no visible effect on the dorsal skin” and the “increase of apoptosis by BzATP” value (hEVEC cells) was 2.5 fold.

From US8314068B2, “P2X7 inhibition of epithelial cancers and papillomas” (University Hospitals of Cleveland, priority 2009, dated 2012)
